In this assay the test system is CD2F1 mice, L1210 leukemia ip, survival T/C. Nature of the assay: NCI In Vivo Anticancer Drug Screen. Data for tumor model L1210 Leukemia (intraperitoneal) in CD2F1 (CDF1) mice. The conditions noted are these: endpoint: mean survival time, higher = longer survival. In a few lines:
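Antitumor effect is scored in animals hosting a serially transplanted tumor. Values compare compound-dosed animals against vehicle-only controls as a simple quotient.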

Setting [1] is: dose: 75.0 mg/kg/injection, schedule: Q01DX001 (ip), vehicle: saline.
Setting [2] is: dose: 150.0 mg/kg/injection, schedule: Q01DX001 (ip), vehicle: saline.
[3] abbreviates: dose: 100.0 mg/kg/injection, schedule: Q04DX002 (ip), vehicle: saline with Tween-80.
Setting [4] is: dose: 200.0 mg/kg/injection, schedule: Q04DX002 (ip), vehicle: saline with Tween-80.
The mark [5] stands for this setting: dose: 400.0 mg/kg/injection, schedule: Q04DX002 (ip), vehicle: saline with Tween-80.
Setting [6] is: dose: 100.0 mg/kg/injection, schedule: Q01DX009 (ip), vehicle: Klucel (hydroxypropylcellulose) (HPC).
The mark [7] stands for this setting: dose: 200.0 mg/kg/injection, schedule: Q01DX009 (ip), vehicle: Klucel (hydroxypropylcellulose) (HPC).
Where [8] appears, read: dose: 400.0 mg/kg/injection, schedule: Q01DX009 (ip), vehicle: Klucel (hydroxypropylcellulose) (HPC).
Where [9] appears, read: dose: 100.0 mg/kg/injection, schedule: Q01DX001 (ip), vehicle: saline.
Where [10] appears, read: dose: 200.0 mg/kg/injection, schedule: Q01DX001 (ip), vehicle: saline.
The mark [11] stands for this setting: dose: 400.0 mg/kg/injection, schedule: Q01DX001 (ip), vehicle: saline.
Where [12] appears, read: dose: 100.0 mg/kg/injection, schedule: Q04DX003 (ip), vehicle: saline with Tween-80.
[13] abbreviates: dose: 200.0 mg/kg/injection, schedule: Q04DX003 (ip), vehicle: saline with Tween-80.
Setting [14] is: dose: 400.0 mg/kg/injection, schedule: Q04DX003 (ip), vehicle: saline with Tween-80.
Setting [15] is: dose: 100.0 mg/kg/injection, schedule: Q04DX003 (ip), vehicle: saline.
The mark [16] stands for this setting: dose: 200.0 mg/kg/injection, schedule: Q04DX003 (ip), vehicle: saline.
Setting [17] is: dose: 25.0 mg/kg/injection, schedule: Q04DX002 (ip), vehicle: saline with Tween-80.
[18] abbreviates: dose: 50.0 mg/kg/injection, schedule: Q04DX002 (ip), vehicle: saline with Tween-80.

Several values for one entry are separate records, joined by “and”; a condition that tells them apart may be missing. Equal entries are not always repeated. Inconclusive results and toxic doses are left out.

As for `CCCCCNC(=O)CCC(NC(=O)c1ccc(N(C)Cc2cnc3nc(N)nc(N)c3n2)cc1)C(=O)O` (stereo not drawn), the T/C was 107 % of control (dose: 1.0 mg/kg/injection, schedule: Q01DX009 (ip), vehicle: sodium bicarbonate); 118 % of control (dose: 10.0 mg/kg/injection, schedule: Q01DX009 (ip), vehicle: sodium bicarbonate); 122 % of control (dose: 50.0 mg/kg/injection, schedule: Q01DX009 (ip), vehicle: sodium bicarbonate); 152 % of control (dose: 200.0 mg/kg/injection, schedule: Q01DX009 (ip), vehicle: sodium bicarbonate); 164 % of control (dose: 400.0 mg/kg/injection, schedule: Q01DX009 (ip), vehicle: sodium bicarbonate).
In the case of `C#CCOC(=O)NCCC`, the T/C (dose: 100.0 mg/kg/injection, schedule: Q04DX003 (ip), vehicle: Klucel (hydroxypropylcellulose) (HPC)) was 96 % of control and the T/C (dose: 200.0 mg/kg/injection, schedule: Q04DX003 (ip), vehicle: Klucel (hydroxypropylcellulose) (HPC)) was 100 % of control.
On to `Nc1nc(N)c2nc(CN(CCc3ccccc3)c3ccc(C(=O)NC(CCC(=O)O)C(=O)O)cc3)cnc2n1` (stereo not drawn), for which the T/C by setting is: (dose: 20.0 mg/kg/injection, schedule: Q01DX009 (ip), vehicle: sodium bicarbonate) 100 % of control; (dose: 40.0 mg/kg/injection, schedule: Q01DX009 (ip), vehicle: sodium bicarbonate) 105 % of control; (dose: 80.0 mg/kg/injection, schedule: Q01DX009 (ip), vehicle: sodium bicarbonate) 108 % of control; (dose: 100.0 mg/kg/injection, schedule: Q01DX001 (ip), vehicle: sodium bicarbonate) 96 % of control; (dose: 200.0 mg/kg/injection, schedule: Q01DX001 (ip), vehicle: sodium bicarbonate) 98 % of control; (dose: 400.0 mg/kg/injection, schedule: Q01DX001 (ip), vehicle: sodium bicarbonate) 102 % of control.
As to `CNC(=O)N(C)c1ccccc1`, the T/C by setting is: (dose: 100.0 mg/kg/injection, schedule: Q04DX002 (ip), vehicle: saline) 101 % of control; (dose: 200.0 mg/kg/injection, schedule: Q04DX002 (ip), vehicle: saline) 101 % of control; (dose: 400.0 mg/kg/injection, schedule: Q04DX002 (ip), vehicle: saline) 101 % of control.
For the compound `CCCCCCCC/C=C\CCCCCCCC(=O)NCCN(CC)CC`, the T/C runs as follows: under setting [1], 101 % of control; under setting [2], 101 % of control.
Consider `CC(=O)Oc1c(Br)cc2cc(Br)ccc2c1Br`, for which the T/C under setting [3] is 90 % of control, the T/C under setting [4] is 98 % of control and the T/C under setting [5] is 98 % of control.
With `CNCc1ccc2c(c1)OCO2`, the T/C under setting [1] is 100 % of control and the T/C under setting [2] was 103 % of control.
For `C/C(Cl)=C/C(=O)O.[Ag]`, under setting [1], the T/C was 93 % of control.
On to `COc1cc(OC)c(NC(=O)Nc2ccc(CCO)cc2)cc1Cl`, for which the T/C was 93 % of control (dose: 50.0 mg/kg/injection, schedule: Q01DX009 (ip), vehicle: saline with Tween-80); 86 % of control (dose: 100.0 mg/kg/injection, schedule: Q01DX009 (ip), vehicle: saline with Tween-80); 93 % of control (dose: 200.0 mg/kg/injection, schedule: Q01DX009 (ip), vehicle: saline with Tween-80).
With `C[C@]12CCC(=O)C(O)=C1CC[C@@H]1[C@@H]2CC[C@]2(C)C(=O)CC[C@@H]12`, the T/C by setting is: (dose: 12.5 mg/kg/injection, schedule: Q01DX009 (ip), vehicle: Klucel (hydroxypropylcellulose) (HPC)) 103 % of control; (dose: 25.0 mg/kg/injection, schedule: Q01DX009 (ip), vehicle: Klucel (hydroxypropylcellulose) (HPC)) 97 % of control; (dose: 50.0 mg/kg/injection, schedule: Q01DX009 (ip), vehicle: Klucel (hydroxypropylcellulose) (HPC)) 104 % of control; under setting [6], 98 % of control; under setting [7], 91 % of control; under setting [8], 97 % of control.
Regarding `CC(=O)C(C)(c1ccccc1)N(Cc1ccccc1)C(=O)c1ccccc1` (stereo not drawn), the T/C reads like this: under setting [9], 96 % of control; under setting [10], 98 % of control; under setting [11], 96 % of control.
As for `NC(=O)c1ccc([N+](=O)[O-])cc1Cl`, the T/C under setting [3] was 102 % of control, the T/C under setting [4] was 94 % of control and the T/C under setting [5] is 94 % of control.
Turning to `COC(=O)C1(C)CCCC2(C)C3CC4OC4(C(C)C)CC3(O)CCC12` (stereo not drawn), the T/C under setting [12] was 96 % of control, the T/C under setting [13] is 96 % of control and the T/C under setting [14] is 98 % of control.
As to `CC(=O)Oc1c(Br)cc(Br)cc1-c1ccccc1`, the T/C reads like this: under setting [9], 95 % of control; under setting [15], 117 % of control; under setting [10], 94 % of control; under setting [16], 105 % of control; under setting [11], 101 % of control; (dose: 400.0 mg/kg/injection, schedule: Q04DX003 (ip), vehicle: saline) 114 % of control.
As to `CN(C)P1(=O)OCC(C(C)(C)C)CO1` (stereo not drawn), the T/C is, setting by setting: under setting [17], 101 % of control and 91 % of control; under setting [18], 97 % of control and 94 % of control; under setting [3], 86 % of control and 94 % of control and 100 % of control.
For `CCCCCCCCCCCCCCCCCC[N+](C)(C)C` (tested in a mixture with another compound), the T/C (dose: 1.5 mg/kg/injection, schedule: Q01DX009 (ip), vehicle: saline with Tween-80) is 100 % of control; the T/C (dose: 3.0 mg/kg/injection, schedule: Q01DX009 (ip), vehicle: saline with Tween-80) was 94 % of control; the T/C (dose: 6.0 mg/kg/injection, schedule: Q01DX009 (ip), vehicle: saline with Tween-80) is 94 % of control.
Consider `COC1=CCC(=Nc2ccccc2)C=C1`, for which the T/C by setting is: (dose: 100.0 mg/kg/injection, schedule: Q01DX001 (ip), vehicle: saline with Tween-80) 96 % of control; (dose: 200.0 mg/kg/injection, schedule: Q01DX001 (ip), vehicle: saline with Tween-80) 102 % of control; (dose: 400.0 mg/kg/injection, schedule: Q01DX001 (ip), vehicle: saline with Tween-80) 95 % of control.
For the compound `CN(C)CCCNCC#CCNCCCN(C)C`, the T/C is 100 % of control (dose: 50.0 mg/kg/injection, schedule: Q01DX009 (ip), vehicle: saline); 98 % of control (dose: 100.0 mg/kg/injection, schedule: Q01DX009 (ip), vehicle: saline); 101 % of control under setting [15]; 96 % of control (dose: 200.0 mg/kg/injection, schedule: Q01DX009 (ip), vehicle: saline); 95 % of control under setting [16].
Take `CC(CO)(CO)N(CCO)CCO`: the T/C under setting [12] is 94 % of control, the T/C under setting [13] is 100 % of control and the T/C under setting [14] is 92 % of control.
As for `O=S(=O)(Cc1ccc(Cl)cc1Cl)Cc1ccc(Cl)cc1Cl`, the T/C is 98 % of control under setting [6], 91 % of control under setting [7] and 92 % of control under setting [8].
For the compound `OCCN(CCO)c1ccc(O)cc1`, the T/C reads like this: (dose: 5.0 mg/kg/injection, schedule: Q01DX001 (ip), vehicle: saline) 92 % of control; (dose: 10.0 mg/kg/injection, schedule: Q01DX001 (ip), vehicle: saline) 92 % of control; (dose: 20.0 mg/kg/injection, schedule: Q01DX001 (ip), vehicle: saline) 92 % of control; (dose: 40.0 mg/kg/injection, schedule: Q01DX001 (ip), vehicle: saline) 92 % of control; under setting [1], 103 % of control; under setting [2], 101 % of control.
Turning to `O=C1NC(=O)C2C3C=CC(C3)C12` (stereo not drawn), the T/C is, setting by setting: (dose: 12.5 mg/kg/injection, schedule: Q04DX002 (ip), vehicle: saline with Tween-80) 93 % of control; under setting [17], 93 % of control; under setting [18], 97 % of control; (dose: 100.0 mg/kg/injection, schedule: Q01DX009 (ip), vehicle: saline sonified) 96 % of control; under setting [12], 94 % of control; (dose: 200.0 mg/kg/injection, schedule: Q01DX009 (ip), vehicle: saline sonified) 96 % of control. Moreover, the T/C reads like this: under setting [13], 101 % of control; (dose: 400.0 mg/kg/injection, schedule: Q01DX009 (ip), vehicle: saline sonified) 98 % of control; under setting [14], 100 % of control.
